Results taken from patent US11466054B2, “Inhibitors of metastasis” (BIOMARCK PHARMACEUTICALS LTD., priority 2013, dated 2022).
Where no end group is shown, it is not given here. The star is where a group is joined. Myristoyl = CCCCCCCCCCCCCC(=O)*

How the values were obtained:
[1] = system: PC-9 cells; assay: Orthotopic lung injection xenograph model, PC-9 cells in nude mice; type: in vivo; conditions: 50 nmoles i.p. once every three days, 25 days; for No. of Metastatic Lung Tumors Mean ± SE (L't): left lung; for No. of Metastatic Lung Tumors Mean ± SE (R't): right lung; for Tumor Size (mm) Mean ± SE: tumor at site of injection, cells pretreated 100 μM 4 hours
Procedure: The metastatic activity of cancer cells in vivo after treatment with MANS peptide or BIO-11006 was assessed in the orthotopic lung injection xenograph model. After pretreatment with either PBS, or PBS+MANS, BIO-11006 (SEQ ID NO: 106), or the control RNS peptide at 100 μM for 4 hours, PC-9 cells were injected into the left lobe of the lung of nude mice. Seven days later, these mice were given systemic treatment with either PBS only (Con), RNS (additional control peptide), MANS or BIO-11006 at 50 nmoles per intraperitoneal injection once every three days. At 25 days (6 injections) post-seeding of these tumor cells, mice were sacrificed and the number of metastasized tumor nodules in the contralateral lung and other organs was counted.

[2] = system: CL1-5 cells; assay: Transwell migration assay, CL1-5 cells pretreated with peptide; type: cell-based, human; conditions: 12 hours; for cell number: control approximately 105;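 on migration index: index equals control cell count divided by treated cell count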
Procedure: CL1-5 cells, an aggressively metastatic cell line derived from a human adenocarcinoma, were cultured in RPMI 1640 media with 10% FBS, 37° C. at 95% […]/5% CO2 until ready for use. Transwell plates (24-well, 8-um pore size; Costar, Cambridge, Mass., USA) were used to conduct the migration assay. The lower chambers of the Transwell plates were filled with 600 μl of basal media containing 10% FBS. The cells (1×10^5) were pretreated with 50 or 100 μM of the indicated test peptide for 30 min, and then suspended in 100 μl of basal media containing 1% BSA and added to the upper chamber, and the cells then were incubated at 37° C. for 12 hr. The cells on the upper surface of the filters were removed using cotton swabs, and the cells that migrated to the lower surface of the filters were washed, fixed, and stained with hematoxylin and counted under the microscope. The percent change in migration was determined by counting the number of cells that migrated to the lower surface of the filters. At least 3 separate microscopic fields were counted per membrane (n=4).
Primary CL1-5 cells originated from human adenocarcinoma lung cancer Transwell plates with 24-wells, 8-μ pore size (Costar, Cambridge, Mass., USA) were used to conduct the migration assay. The lower chambers of the transwell plates were filled with 600 μL of basal media containing 10% FBS. The cells (1-2×10^5) were suspended in 100 μL of basal media containing 1% BSA. The test peptide at desired concentration was added to the upper chamber directly or after preincubation with cancer cells. The plates were then incubated at 37° C. for 12 hours. The cells on the upper surface of the filters were removed using cotton swabs. The cells that migrated to the lower surface of the filters were washed, fixed, and stained with hematoxylin and counted under the microscope. At least five separate microscopic fields are counted per membrane (n=3). The percent change in migration was determined by counting the number of cells that migrated to the lower surface of the filters.
The count means the actual number of cells which migrated to the lower chamber and counted by a light microscope at 40× magnification, presented as the mean number of cells in 10 randomly chosen fields for each treatment.
The “index” was calculated by dividing the number of cells that migrated in the presence of peptides by the number of cells that migrated randomly (control group). […]. This calculation can reflect the extent that the migration of cells was blocked by 30 minute pretreatment with MANS-related peptides.

[3] = system: A549; assay: Transwell migration assay, A549 cells; type: cell-based, human; conditions: 12 hr; for migration index numbers relative to control and to RNS peptide / migrated cell numbers relative to control and to RNS peptide: A549, 50 μm; for migrated cell numbers relative to control and to RNS peptide / cell numbers in comparison to control, RNS peptide and MANS peptide: FIG. 11; for cell numbers in comparison to control, RNS peptide and MANS peptide: A549, 25 μm
Procedure: The human adenocarcinoma-derived alveolar epithelial cell line A549 (an invasive cell line) was obtained from the American Type Culture Collection (ATCC) and was cultured in RPMI-1640 supplemented with 10% fetal bovine serum and 100 U/ml penicillin/streptomycin, in 75 cm^2 tissue culture flasks. The cells reached confluence by the third day of culture at 37° C. in an atmosphere of 95% air and 5% CO2 and were maintained by serial passage.
The test peptides (MANS, RNS, BIO-11006, BIO-11000, BIO-11002, BIO-91200, and BIO-10901) were dissolved in PBS at a pH of 7.0; slow vortex mixing for about two hours aided solubility.
Transwell plates (24-well, […]; Costar, Cambridge, Mass., USA) were used to conduct the migration assay. The lower chambers of the transwell plates were filled with 600 μl of basal medium containing 10% FBS. The cells (1×10^5) were suspended in 100 μl of basal medium containing 1% BSA and added to the upper chamber, and the plates incubated at 37° C. with 5% CO2 for 12 hr in PBS (control), or the indicated test peptides at 10, 25 or 50 μM. The cells on the upper surface of the filters were removed using cotton swabs. The cells that migrated to the lower surface of the filters were washed, fixed, and stained with hematoxylin and counted under the microscope. The percent change in migration is determined by counting the number of cells that migrated to the lower surface of the filters. At least four separate microscopic fields are counted per membrane, with a total of three replicate experiments at each concentration. The statistics software “Prizm” was used for data analysis.

[4] = system: A549 cells; assay: Anti-metastatic efficacy in SCID mice given A549 cells via the tail vein; type: in vivo; conditions: Day 53; for No. of metastatic nodules in lungs Mean ± SEM: aerosol 100 μM every other day for 7 weeks
Procedure: Female NOD.CB17-Prkdc^scid/NCrHsd, Mus musculus mice (Harlan, The Netherlands), housed in individually ventilated cages, were randomized into six groups of eight mice each. A549 cells (2.5×10^6) were injected into the mice via the tail vein. The control group received aerosolized vehicle PBS; while the groups 2 and 3 received the aerosolized test compound BIO-11006 either from −1 day before the cancer cells injection (group 2) or from +3 days after the cancer cell injection (group 3) on every other day for 7 weeks via nebulizer (Aeroneb Lab). Groups 4 and 5 received the aerosolized test compound MANS peptide either from −1 day before the cancer cell line injection (group 4) or from +3 days after the cell line injection (group 5) on every other day for 7 weeks via a nebulizer (Aeroneb Lab). For aerosol delivery, solution of each test compound (100 μM) was prepared in PBS, pH 7.0. For each treatment, 5 mL of test compound solution was aerosolized over 30 minutes into a chamber containing four mice at a time. The mice were monitored for body weight every other day for 7 weeks.
One group of mice (n=7) served as normal control. These were untreated naïve mice used to monitor the health status of mice during the study period. All animals from all groups were sacrificed on Day 53. FIG. 15 compares number of metastatic nodules in lungs after respective administration of BIO-11006 and MANS peptide on Day 53 following A549 cell injection. […] There were few focal tumor nodules in ⅞ of mice treated with BIO-11006 peptide starting at either Day −1 or Day +3 relative to A549 cell injection.

[5] = CL1-5, 50 μmolar pretreatment, FIG. 9
[6] = CL1-5, 50 μmolar pretreatment, FIG. 9, control=1.0
[7] = CL1-5, 50 μmolar, FIG. 8A, control=1, higher value signifies less migration
[8] = CL1-5, 100 μmolar pretreatment, FIG. 10
[9] = CL1-5, 100 μmolar pretreatment, FIG. 10, control=1.0
[10] = CL1-5, 100 μmolar, FIG. 8B, control=1, higher value signifies less migration
[11] = CL1-5, pretreatment at 50 μmolar, FIG. 7A
[12] = CL1-5, pretreatment at 100 μmolar, FIG. 7B

Substance | Metastases (affected mice/total mice) Diaphragm [1] | Metastases (affected mice/total mice) Heart [1] | Metastases (affected mice/total mice) Intestines [1] | Metastases (affected mice/total mice) Spleen [1] | No. of Metastatic Lung Tumors Mean ± SE (L't) [1] | No. of Metastatic Lung Tumors Mean ± SE (R't) [1] | Tumor Size (mm) Mean ± SE [1] | cell number [2, 5] | migration index [2, 6] | migration index [2, 7] | cell number [2, 8] | migration index [2, 9] | migration index [2, 10] | migrated cell numbers [2, 11] | migrated cell numbers [2, 12] | migration index numbers relative to control and to RNS peptide [3] | migrated cell numbers relative to control and to RNS peptide [3] | cell numbers in comparison to control, RNS peptide and MANS peptide [3] | other results
GTAPAAEGAGAEVKRASAEAKQAF (Myristoyl-GTAPAAEGAGAEVKRASAEAKQAF) [RNS peptide, reference compound] | 3/4 | 3/4 | 1/4 | 2/4 | 1.00 ± 0.40; | 5.75 ± 2.01 | 1.72 ± 0.41 mm | approximately 90 | approximately 1.3 | approximately 1.1 | approximately 95 | approximately 1.2 | approximately 1 | approximately 95 | approximately 90 |  |  |  | 
N-acetyl-GAQFSKTAA (Ac-GAQFSKTAA; listed as Homo sapiens) [BIO-10901] |  |  |  |  |  |  |  |  |  | approximately 1.75 |  |  | approximately 2.7 | approximately 60 | approximately 35 | increased migration index numbers | decreased migrated cell numbers |  | 
N-myristoyl-AKGE (Myristoyl-AKGE; listed as Homo sapiens) [BIO-91200] |  |  |  |  |  |  |  |  |  | approximately 1.7 | approximately 55 | approximately 2.1 | approximately 2.4 | approximately 65 | approximately 40 | increased migration index numbers | decreased migrated cell numbers | significantly reduced cell numbers | 
N-myristoyl-GAQFSKTAAK (Myristoyl-GAQFSKTAAK; listed as Homo sapiens) [BIO-11000] |  |  |  |  |  |  |  | approximately 70 | approximately 1.5 |  | approximately 50 | approximately 2.3 |  |  |  | increased migration index numbers | decreased migrated cell numbers |  | 
N-myristoyl-GAQFSKTAAK-NH2 (Myristoyl-GAQFSKTAAK-NH2; SMILES CCCCCCCCCCCCCC(=O)NCC(=O)N[C@@H](C)C(=O)N[C@@H](CCC(N)=O)C(=O)N[C@@H](Cc1ccccc1)C(=O)N[C@@H](CO)C(=O)N[C@@H](CCCCN)C(=O)N[C@H](C(=O)N[C@@H](C)C(=O)N[C@@H](C)C(=O)N[C@@H](CCCCN)C(N)=O)[C@@H](C)O) [BIO-11002] |  |  |  |  |  |  |  |  |  | approximately 2.7 |  |  | approximately 3.8 | approximately 50 | approximately 25 | increased migration index numbers | decreased migrated cell numbers | significantly reduced cell numbers | 
N-myristoyl-GAQFSKTAAKGEAAAERPGEAAVA (Myristoyl-GAQFSKTAAKGEAAAERPGEAAVA; listed as Homo sapiens) [MANS peptide] | 0/4 | 0/4 | 0/4 | 0/4 | 0; 0 | 0; 0 | 1.48 ± 0.54 mm | approximately 45 | approximately 2.5 | approximately 2.5 | approximately 35 | approximately 3.5 | approximately 4.3 | approximately 40 | approximately 20 | increased migration index numbers | decreased migrated cell numbers |  | animals with few focal tumor nodules ([4]; +3 Day treatment group): Few focal tumor nodules in 7/8; distant metastasis ([4]; +3 Day treatment group): No distant metastasis; No. of metastatic nodules in lungs Mean ± SEM ([4]; +3 Day treatment group): 13 ± 4; animals with few focal tumor nodules ([4]; −1 Day treatment group): Few focal tumor nodules in 4/8; distant metastasis ([4]; −1 Day treatment group): No distant metastasis; No. of metastatic nodules in lungs Mean ± SEM ([4]; −1 Day treatment group): 22 ± 7
